For this assay, the system named is CIA (Collagen-Induced Arthritis) Mouse. Put plainly: In vivo evaluation arthritis treatment effect of CIA mice. As to conditions: until 15th day, siRNA (RelA) 20 μg/day tail vein (composition as Example 24, N/P 20), MTX 90 μg intraperitoneal. The protocol: Under ice-cooling, while adding an equal amount of type II collagen solution (2 mg/mL) dropwise to complete Freund's adjuvant (CFA), the mixture was homogenized to prepare an emulsion. Similarly, while adding an equal amount of type II collagen solution (2 mg/mL) dropwise to incomplete Freund's adjuvant (IFA), the mixture was homogenized to prepare an emulsion. The prepared emulsion was confirmed to have formed a w/o type emulsion by maintaining a sphere even when it was dropped on the water surface, and was used in the experiment.
Using 8-weeks old male DBA/1J mice, CIA mice were prepared. In the following, the schedule for preparing CIA mice is shown. 100 μL of the emulsion obtained from type II collagen and CFA prepared at −21′ day was intradermally administered to the tail root portion to carry out induction of the first immunization. 100 μL of the emulsion obtained from type II collagen and […] prepared at 0th day was similarly intradermally administered to carry out additional induction of the immunization. At this time, the intradermal administration was carried out reliably was confirmed by the fact that the administered site was protruded with white. […]
Thickening of the hindlimb ankle joint portion was measured by using a micrometer. […]
Clinical score was calculated as follows. […]

The structures appear in SMILES notation.

This is an account of results in patent US11345914B2, “Composition for delivering nucleic acid and nucleic acid-containing composition” (TOKYO UNIVERSITY OF PHARMACY AND LIFE SCIENCES, priority 2017, dated 2022).

As to `CN(Cc1cnc2nc(N)nc(N)c2n1)c1ccc(C(=O)N[C@@H](CCC(=O)O)C(=O)O)cc1` [MTX, methotrexate], the “thickening increasing rate of the hindlimbs” value (FIG. 4) is on record as “thickening of the hindlimbs was admitted”. In addition, the clinical score result (FIG. 5) is given as “remarkable increase in the clinical score was admitted”.
